Source: US20250213563A1, “SUBSTITUTED PYRIMIDIN-4(3H)-ONES FOR USE IN TREATING CANCER” (NAVIRE PHARMA, INC., priority 2021, published 2025)
Entries after “also recorded” stand apart in the source; their conditions may differ.

How the values were obtained:
[1] = Single-dose pharmacokinetics, C57BL/6 mouse; assay type: in vivo, mouse (C57BL/6; details: female, plasma, oral 10 mg/kg, free base
Procedure: The pharmacokinetic (PK) parameters of Compound (10b) (freebase) were determined following single intravenous (IV) and oral (PO) administration in female CD-1 mouse, female C57BL/6 mouse (PO only), male Sprague Dawley rat, male Beagle dog, and male Cynomolgus monkey. Additional evaluation of the PK properties of Compound (10b) was obtained following single dose PO administration in female CD-1 mouse, male Sprague Dawley rat and male Beagle dog over a dose range spanning 10 to 300 mg/kg (mouse and rat) and 1 to 100 mg/kg (dog). The intravenous dose solutions were prepared in 20% DMSO-60% PEG400-20% water and the oral dose solutions as suspensions in 0.5% methylcellulose in water, unless otherwise noted. Plasma concentration profiles were generated from serial sampling in individual animals up to 24 hours post dose, except for the studies in mice where composite sampling methods were used (i.e. 3 sampling times per mouse; 9 mice per group). […] Exposures increased with increasing dose level across species, in a dose-proportional manner in mouse and dog, and in a greater than dose-proportional manner in rat (80× increase in AUC with a 30× increase in dosage).

[2] = biological target: T1, phosphatase domain of human SHP2 (Homo sapiens, UniProt Q06124); test: SHP2 enzymatic assay (DiFMUP), phosphatase domain; assay type: biochemical; details: at up to 50 μM
T1 construct: phosphatase domain of human SHP2 (amino acid Ala237-Ile529); 6xHis (TEV site) (N, cleaved yes); made in house; host or cells: E. coli BL21 (DE3)
T1 sequence (Q06124 237-529): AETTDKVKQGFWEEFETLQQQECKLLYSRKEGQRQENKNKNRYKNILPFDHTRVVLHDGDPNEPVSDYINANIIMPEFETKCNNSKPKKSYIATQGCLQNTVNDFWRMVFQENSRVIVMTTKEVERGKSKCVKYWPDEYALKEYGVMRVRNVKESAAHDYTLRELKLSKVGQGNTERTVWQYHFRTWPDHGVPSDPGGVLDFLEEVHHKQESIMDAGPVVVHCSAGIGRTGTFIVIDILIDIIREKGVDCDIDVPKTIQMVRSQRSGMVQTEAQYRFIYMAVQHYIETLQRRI
Procedure: Protein purification: The recombinant DNA for full-length human SHP2 (amino acid 1-597) or the phosphatase domain of human SHP2 (amino acid Ala237-Ile529) was cloned into a pET30 vector (Sigma #69909-3), which was modified to contain a TEV protease site after the N-terminal 6×His tag. The expression vector was transformed into E. coli BL21 (DE3) (NEB #C2527H). The protein was expressed and purified by the following procedure. Bacterial cells from a 50 mL overnight culture were inoculated in 6 L of terrific broth media. Once the E. coli culture reached an OD600 of 0.7, the temperature was lowered to 18° C. and recombinant protein expression was induced by the addition of 0.5 mM IPTG. After overnight incubation, the cells were harvested by centrifugation at […] for 45 min in a Sorvall Lynx 6000 (Thermo Fisher) centrifuge with F9-6×1000 LEX rotor. The cell pellets were stored at −80° C. until purification. […] The final product was 98% pure as determined by SDS-PAGE. The concentration of SHP2 protein was determined from the absorbance at 280 nm wavelength, using the calculated molar extinction coefficient for SHP2 protein of 72770 M^−1 cm^−1.
SHP2 enzymatic assay: Phosphatase activity of full-length human SHP2 wild-type enzyme or SHP2 phosphatase domain was measured using fluorogenic 6,8-difluoro-4-methylumbelliferyl phosphate (DiFMUP; Molecular Probes #D6567) as the substrate. […]

[3] = biological target: T2, Protein kinase C eta (PRKCH) (Homo sapiens, UniProt P24723); test: KINOMEscan competition binding; details: read-out: ligand binding, % control
T2 construct: purchased DiscoverX (KINOMEscan platform)
T2 sequence (P24723 whole entry): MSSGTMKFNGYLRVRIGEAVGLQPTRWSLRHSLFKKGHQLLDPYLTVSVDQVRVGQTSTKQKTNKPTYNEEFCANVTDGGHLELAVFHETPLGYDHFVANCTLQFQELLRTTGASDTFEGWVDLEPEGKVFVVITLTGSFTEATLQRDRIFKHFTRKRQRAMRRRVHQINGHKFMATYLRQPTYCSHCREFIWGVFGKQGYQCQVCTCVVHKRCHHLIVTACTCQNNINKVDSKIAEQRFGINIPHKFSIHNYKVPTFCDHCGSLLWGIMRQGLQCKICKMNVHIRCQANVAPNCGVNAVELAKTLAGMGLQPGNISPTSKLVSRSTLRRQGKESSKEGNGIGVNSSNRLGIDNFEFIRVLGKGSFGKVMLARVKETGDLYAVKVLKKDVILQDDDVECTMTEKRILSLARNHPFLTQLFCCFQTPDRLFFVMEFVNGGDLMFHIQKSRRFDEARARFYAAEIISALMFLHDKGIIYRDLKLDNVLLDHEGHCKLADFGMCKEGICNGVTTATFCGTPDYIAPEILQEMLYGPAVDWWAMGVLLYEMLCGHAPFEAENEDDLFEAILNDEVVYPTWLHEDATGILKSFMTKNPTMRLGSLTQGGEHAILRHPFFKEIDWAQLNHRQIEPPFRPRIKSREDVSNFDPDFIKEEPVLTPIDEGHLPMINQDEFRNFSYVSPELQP
Procedure: (§1) Activity of Compound (10b) (1 μM) was assessed against a panel of 419 human kinases (including a set of disease-relevant mutant variants). Assays were conducted using the KINOMEscan™ platform from DiscoverX which measures compound interaction with kinases using active site-directed competition binding assays. Displacement of ligand binding to the kinase by <35% of the control value is considered significant. Of the 419 kinases tested, only 4 kinases reached this level of displacement: Protein kinase C eta (PRKCH), 34% control; Large tumor suppressor kinase 1 (LATS1), 32% control; General control nonderepressible 2 kinase (GCN2), 21% control; and Hematopoietic Progenitor Kinase 1 (HPK1), 4.4% control.

[4] = test system: General control nonderepressible 2 kinase (GCN2); test: KINOMEscan competition binding; design: species or system human; details: 1 μM
Procedure: as §1

SMILES: Cc1c(N2CCC3(CC2)CO[C@@H](C)[C@H]3N)nc(C)n(-c2cccc(Cl)c2Cl)c1=O (atropisomer, axis not shown; (Ra)) [Compound (10b), 6-((3S,4S)-4-amino-3-methyl-2-oxa-8-azaspiro[4.5]decan-8-yl)-3-(Ra)-(2,3-dichlorophenyl)-2,5-dimethylpyrimidin-4(3H)-one]
- Cmax [1]: 5.4 µM
- Tmax [1]: 1 h
- AUC(0-t) ([1]; read-out: AUC0→24): 39 µM·h
- suppression of enzymatic activity of SHP2 phosphatase domain [2]: did not suppress; also recorded: does not suppress
- remaining ligand binding at 1 µM [3]: 34%
- ligand binding, % control [4]: 21 % control
